Measured values published in patent EP4772634A1, “DOUBLE-STRANDED RNA TARGETING COAGULATION FACTOR XI” (Chia Tai Tianqing Pharmaceutical Group Co., Ltd., priority 2023, dated 2025).

Columns and labels:
[1] = system: human coagulation factor XI protein; experiment: In vivo activity in human coagulation factor XI model mice (Experimental Example 3), plasma FXI protein by ELISA; conditions: humanized mice
Description: The humanized mice used in this experimental example were purchased from Cyagen Biosciences Co., Ltd. The humanized mice were randomly divided into groups, with 4 mice per group. The compound and PBS control (pH = 7.2) were administered to each group of mice, respectively. The day of the first administration was designated as day 0 of the experiment. The corresponding compound solutions were administered via a single subcutaneous injection based on animal body weight, at administration doses of 1 mg/kg and 5 mg/kg. PBS control mice were each administered PBS, with an administration volume of 10 mL/kg body weight. Orbital blood was collected before administration and on day 7, day 14, day 28, day 42, and day 63 after administration. Plasma was separated, and the content of the coagulation factor XI protein in the plasma was measured at each time point.
About 165 µL of blood was collected from the orbital veins for plasma collection. A 3.8% trisodium citrate anticoagulant was added to the whole blood in a volume ratio of 1:9 (anticoagulant:[…], v/v), and the mixture was centrifuged at 3000 rpm at 20 °C for 15 min to collect plasma. The content of the coagulation factor XI protein in the plasma obtained from the above groups of mice (test groups administered the compound and PBS control group) was measured using a Human Coagulation Factor XI ELISA kit (Sigma, Cat. No. RAB1385-1KT).
(§1) The coagulation factor XI protein inhibition rate was calculated according to the following equation: [formula]
Table 11 lists the measurement of FXI protein content in animal plasma before and on day 7, day 14, day 28, day 42, and day 63 after a single subcutaneous administration of siRNA ligand conjugates (TD01M01L01, TD02M01L01) at doses of 1 mg/kg and 5 mg/kg to humanized homozygous mice. […] Table 11. In vivo experimental design

[2] = system: human coagulation factor XI protein; experiment: In vivo activity in AAV-FXI model mice, serum FXI protein by ELISA; conditions: AAV-FXI mice (C57BL/6 male), single subcutaneous 3 mg/kg
Description: 4-6 week old C57BL/6 male mice were injected via the tail vein with 1 × 10^11 vg of AAV8-FXI (WZ Biosciences). On day 28 after modeling, mice with an hFXI protein content of greater than 100 ng/mL were selected. The mice were randomly divided into groups based on body weight and were injected with 3 mg/kg of the dsRNA ligand conjugate of the present application (amount calculated based on siRNA only) on day 0. Orbital blood was collected on day 7, day 14, day 35, and day 56. Serum was separated, and the content of the coagulation factor XI protein in the serum at each time point was measured using a Human Coagulation Factor XI ELISA kit (Thermo, Cat. No. EH118RB).
as §1
The content of the coagulation factor XI protein in animal serum was measured before and on day 7, day 14, day 35, and day 56 after a single subcutaneous administration of the dsRNA ligand conjugate of the present application at a dose of 3 mg/kg to AAV-FXI mice (see Table 15). […] Table 15. In vivo experimental design

coagulation factor XI = experiment: In vivo activity in cynomolgus monkeys, plasma FXI activity; conditions: cynomolgus monkey plasma, subcutaneous once, 4.2 mg/kg (first row, dose by order of Table 17)
Description: (§2) On day 7 before administration, female cynomolgus monkeys weighing 2-4 kg were fasted overnight, and about 1 mL of blood was collected from the femoral vein. Plasma was collected by centrifugation. FXI protein (Human Coagulation Factor XI ELISAkit, Thermo, Cat. No. EH118RB), FXI activity (coagulation factor XI assay kit, Stago, Cat. No. 00723), and APTT (activated partial thromboplastin time assay kit, Stago, Cat. No. 00595) were measured. The monkeys were evenly divided into groups based on these indicators. On day 0, the dsRNA ligand conjugates of the present application (TD02M02L01, etc.) were injected. On day 0, day 3, day 7, day 14, day 21, day 28, day 37, day 54, and day 68, plasma was collected to measure plasma FXI protein, FXI activity, and activated partial thromboplastin time (APTT).
The coagulation factor XI activity inhibition rate was calculated according to the following equation: [formula]
(§3) The content of the coagulation factor XI protein, the FXI activity, and the activated partial thromboplastin time in animal plasma were measured before and on day 0, day 3, day 7, day 14, day 21, day 28, day 37, day 54, and day 68 after the subcutaneous administration of the dsRNA ligand conjugates of the present application at doses of 4.2 mg/kg and 14 mg/kg to cynomolgus monkeys (Table 17). […] Table 17. In vivo experimental design

[3] = system: activated partial thromboplastin time (APTT); experiment: In vivo activity in cynomolgus monkeys, activated partial thromboplastin time in plasma; conditions: cynomolgus monkey plasma, subcutaneous once, 14 mg/kg (second row, dose by order of Table 17)
Description: as §2
The activated partial thromboplastin time prolongation rate was calculated according to the following equation: [formula]
as §3

TD02M02L01: dsRNA ligand conjugate: TD02M02 with L01 (GalNAc) ligand at 3' end of sense strand SEQ ID NO 35; antisense SEQ ID NO 36 (sense GGATGATTTTCTTATATCA; antisense TGATATAAGAAAATCATCCTG; GalNAc L01 ligand at sense 3' end, 2'-OMe/2'-F, pattern not given here)
Relative inhibition rate (%) of FXI protein ([1]; single subcutaneous 1 mg/kg, D7): 66.7% | Relative inhibition rate (%) of FXI protein ([1]; single subcutaneous 1 mg/kg, D14): 70.2% | Relative inhibition rate (%) of FXI protein ([1]; single subcutaneous 1 mg/kg, D28): 58.6% | Relative inhibition rate (%) of FXI protein ([1]; single subcutaneous 1 mg/kg, D42): 70.5% | Relative inhibition rate (%) of FXI protein ([1]; single subcutaneous 1 mg/kg, D63): 47.0% | Relative inhibition rate (%) of FXI protein ([1]; single subcutaneous 5 mg/kg, D7): 91.5% | Relative inhibition rate (%) of FXI protein ([1]; single subcutaneous 5 mg/kg, D14): 93.5% | Relative inhibition rate (%) of FXI protein ([1]; single subcutaneous 5 mg/kg, D28): 88.4% | Relative inhibition rate (%) of FXI protein ([1]; single subcutaneous 5 mg/kg, D42): 86.9% | Relative inhibition rate (%) of FXI protein ([1]; single subcutaneous 5 mg/kg, D63): 66.3% | Relative inhibition rate (%) of FXI protein ([2]; D7): 96.3% | Relative inhibition rate (%) of FXI protein ([2]; D14): 97.3% | Relative inhibition rate (%) of FXI protein ([2]; D35): 86.0% | Relative inhibition rate (%) of FXI protein ([2]; D56): 57.4% | Relative inhibition rate (%) of FXI activity (coagulation factor XI; D3): 20.5% | Relative inhibition rate (%) of FXI activity (coagulation factor XI; D7): 66.0% | Relative inhibition rate (%) of FXI activity (coagulation factor XI; D14): 84.7% | Relative inhibition rate (%) of FXI activity (coagulation factor XI; D21): 88.9% | Relative inhibition rate (%) of FXI activity (coagulation factor XI; D28): 89.2% | Relative inhibition rate (%) of FXI activity (coagulation factor XI; D37): 92.6% | Relative inhibition rate (%) of FXI activity (coagulation factor XI; D54): 91.4% | Relative prolongation rate (%) of APTT ([3]; D3): 6.0% | Relative prolongation rate (%) of APTT ([3]; D7): 25.2% | Relative prolongation rate (%) of APTT ([3]; D14): 60.9% | Relative prolongation rate (%) of APTT ([3]; D21): 116.0% | Relative prolongation rate (%) of APTT ([3]; D28): 70.6% | Relative prolongation rate (%) of APTT ([3]; D37): 100.3% | Relative prolongation rate (%) of APTT ([3]; D54): 124.4% | Relative prolongation rate (%) of APTT ([3]; D68): 132.4%
